The target in the assay is Homo sapiens butyrylcholinesterase (hBuChE) (Homo sapiens, UniProt P06276). Briefly: Inhibition of hBuChE (Ellman assay, 4PL dose-response). (Ellman's reagent forms a yellow product with free thiols.)
Chain of Homo sapiens butyrylcholinesterase (hBuChE) (P06276 29-602): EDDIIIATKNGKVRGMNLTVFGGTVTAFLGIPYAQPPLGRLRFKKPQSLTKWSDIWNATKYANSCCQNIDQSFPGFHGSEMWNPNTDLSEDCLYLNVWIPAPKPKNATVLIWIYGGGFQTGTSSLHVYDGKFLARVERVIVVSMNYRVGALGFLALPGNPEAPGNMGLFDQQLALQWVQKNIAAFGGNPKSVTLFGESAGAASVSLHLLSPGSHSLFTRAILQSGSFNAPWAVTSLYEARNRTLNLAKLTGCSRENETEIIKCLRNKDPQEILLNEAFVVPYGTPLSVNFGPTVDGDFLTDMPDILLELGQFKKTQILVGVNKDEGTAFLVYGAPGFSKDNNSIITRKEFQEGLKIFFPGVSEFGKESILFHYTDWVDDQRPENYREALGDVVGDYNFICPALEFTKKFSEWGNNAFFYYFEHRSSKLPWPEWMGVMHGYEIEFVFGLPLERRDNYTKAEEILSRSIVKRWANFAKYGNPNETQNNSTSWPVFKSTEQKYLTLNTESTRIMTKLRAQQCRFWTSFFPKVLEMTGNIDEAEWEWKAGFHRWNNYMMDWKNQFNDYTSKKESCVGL

Regarding `CN(C)c1ccc(C(=C2C=CC(=[N+](C)C)C=C2)c2ccc(N(C)C)cc2)cc1` [CV, tris(4-(dimethylamino)phenyl)methylium chloride], the IC50 (as a rule, the point on the concentration scale where inhibition reaches its midpoint) is 0.9 µM.

The record behind these values is publication PMC6151500 (Molecules : A Journal of Synthetic Chemistry and Natural …, 2017).
